Measurements from patent US8163898B2, “4-sulfonylpiperidine derivatives” (MSD K. K., priority 2007, dated 2012).
Read-outs that look alike come from different tables or passages of the source.

Target: T1, human LCE (Homo sapiens, UniProt Q9H5J4)
T1 sequence (Q9H5J4 1-265): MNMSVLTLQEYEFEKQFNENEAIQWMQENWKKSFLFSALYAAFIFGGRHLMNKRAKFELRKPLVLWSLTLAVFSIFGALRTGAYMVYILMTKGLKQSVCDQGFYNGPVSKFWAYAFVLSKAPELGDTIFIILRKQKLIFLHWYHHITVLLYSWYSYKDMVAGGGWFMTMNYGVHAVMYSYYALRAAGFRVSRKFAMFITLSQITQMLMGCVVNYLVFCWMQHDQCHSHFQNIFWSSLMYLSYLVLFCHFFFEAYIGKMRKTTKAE
Experiment: LCE enzyme activity inhibition test
Assay type: biochemical
Protocol: Pharmacological Test Example 1 (LCE Enzyme Activity Inhibition Test)
A test compound was dissolved in dimethylsulfoxide (DMSO) to 10 mM, and further diluted with DMSO to prepare a 1000-fold concentrated solution, compared with the evaluated concentration. The LCE enzyme activity inhibition test was carried out according to a modification of the method of Moon (J. Biol. Chem., Vol. 276, pp. 45358-45366 (2001)) et al. Specifically, the diluted test compound was added to a 96-well assay plate (Corning, 96-well assay block) at 1.0 μL per well, and then 50 μL of phosphate buffer solution (100 mM potassium phosphate buffer solution (pH 6.5)), 25 μL of substrate solution (100 mM potassium phosphate buffer solution (pH 6.5)), 4.0 μM rotenone, 80 μM fatty acid free bovine serum albumin, 160 μM palmitoyl-CoA 80 μM malonyl-CoA, and 3.5 μM [^14C]-malonyl-CoA (1.92 GBq/mmol, manufactured by Amersham) were added to each well. Further, 25 μL of enzyme solution (100 mM potassium phosphate buffer solution (pH 6.5), 100 μg/mL human LCE) was added thereto. The plate was hermetically closed at the top with a seal, and then incubated with gentle agitation by shaking at 37° C. for 90 minutes. Subsequently, 100 μL of 5N HCl was added to each well, and the assay plate was agitated for 5 minutes at room temperature to stop the enzymatic reaction and also hydrolyze acyl-CoA. Subsequently, the enzymatic reaction solution of each well was adsorbed on each well of a 96-well GF/C filter plate (PerkinElmer, UniFilter 96 GF/C) that had been previously dipped in water. The wells were washed with water to remove unabsorbed malonyl-CoA, and the GF/C filter plate was dried at 50° C. for 60 minutes. Subsequently, 30 μL of scintillator (PerkinElmer, MicroScinti 0) was added to each well, and the plate was sealed at the top. Using a microplate scintillation counter (PerkinElmer, TopCount), the radiation activity of the fixed [^14C] was measured and obtained as the enzyme activity. The human LCE enzyme inhibitory activity of a test compound was calculated based on the radio activity in the well containing test-compound-free DMSO as a control. Compounds of the invention were examined according to this assay.

[1] = human LCE, [14C]-malonyl-CoA and palmitoyl-CoA substrate, 37° C. for 90 minutes, pH 6.5, read-out: IC50

IC50 [1] [µM] | SMILES | IC50 [µM]
0.127 | O=C(Nc1ccc(C(F)(F)F)nc1)N1C2CCC1CC(S(=O)(=O)c1ccccc1)C2 (centres unmarked) [Example 32, 3-phenylsulfonyl-N-[6-(trifluoromethyl)pyridin-3-yl]-8-azabicyclo[3.2.1]octane-8-carboxamide] | –
0.098 | O=C(Nc1ccc(C(F)(F)F)cc1)N1C2CCC1CC(S(=O)(=O)c1ccccc1)C2 (centres unmarked) [Example 1, 3-phenylsulfonyl-N-[(4-trifluoromethyl)phenyl]-8-azabicyclo[3.2.1]octane-8-carboxamide] | –
0.103 | O=C(Nc1cncc(C(F)(F)F)c1)N1C2CCC1CC(S(=O)(=O)c1ccccc1)C2 (centres unmarked) [Example 33, 3-phenylsulfonyl-N-[5-(trifluoromethyl)pyridin-3-yl]-8-azabicyclo[3.2.1]octane-8-carboxamide] | –
0.029 | CC(C)c1ccc(NC(=O)N2C3CCC2CC(S(=O)(=O)c2ccccc2)C3)cc1 (centres unmarked) [Example 16, N-(4-isopropylphenyl)-3-phenylsulfonyl-8-azabicyclo[3.2.1]octane-8-carboxamide] | –
0.1 | O=C(Nc1ccc(C(F)(F)F)cc1)N1C2CCC1CC(S(=O)(=O)c1ncccn1)C2 (centres unmarked) [Example 12, 3-(pyrimidin-2-ylsulfonyl)-N-[(4-trifluoromethyl)phenyl]-8-azabicyclo[3.2.1]octane-8-carboxamide] | –
0.108 | O=C(Nc1ccc(C(F)(F)F)cc1)N1C2CCC1CC(S(=O)(=O)c1ccc(F)cc1)C2 (centres unmarked) [Example 2, 3-(4-fluorophenyl)sulfonyl-N-[(4-trifluoromethyl)phenyl]-8-azabicyclo[3.2.1]octane-8-carboxamide] | –

Second part, the molecule before the results:

SMILES | IC50 [1] [µM] | IC50 [µM]
CC(C)(C)c1ccc(NC(=O)N2C3CCC2CC(S(=O)(=O)c2ccccn2)C3)cc1 (centres unmarked) [Example 40, N-(4-tert-butylphenyl)-3-(pyridin-2-ylsulfonyl)-8-azabicyclo[3.2.1]octane-8-carboxamide] | 0.125 | –
CC(C)c1ccc(NC(=O)N2C3CCC2CC(S(=O)(=O)c2ncccn2)C3)cc1 (centres unmarked) [Example 37, N-(4-isopropylphenyl)-3-(pyrimidin-2-ylsulfonyl)-8-azabicyclo[3.2.1]octane-8-carboxamide] | 0.022 | –
O=C(Nc1ccc(C(F)(F)F)cn1)N1C2CCC1CC(S(=O)(=O)c1ncccn1)C2 (centres unmarked) [Example 35] | 0.194 | –
O=C(Nc1ccc(C(F)(F)F)cc1)N1C2CCC1CC(S(=O)(=O)c1ccccn1)C2 (centres unmarked) [Example 9, 3-(pyridin-2-ylsulfonyl)-N-[(4-trifluoromethyl)phenyl]-8-azabicyclo[3.2.1]octane-8-carboxamide] | – | 0.092
CC(C)c1ccc(NC(=O)N2C3CCC2CC(S(=O)(=O)c2ccccn2)C3)cc1 (centres unmarked) [Example 36, N-(4-isopropylphenyl)-3-(pyridin-2-ylsulfonyl)-8-azabicyclo[3.2.1]octane-8-carboxamide] | 0.032 | –
